# Target: T1, human PAD4 (Homo sapiens, UniProt Q9UM07)
# T1 construct: human PAD4 (NM_012387), A2-P663, was PCR amplified; His-SUMO (N, cleaved yes); made in house; host or cells: E. coli BL21(DE3)
# Test: In vitro PAD4 BAEE biochemical assay
# Conditions: BAEE substrate 3 mM, 5 nM PAD4, 2 mM calcium chloride; geometric mean of multiple experiments
# How it was run: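 Fluorescence read-out (ex 405/em 535 nm) of isoindole formed from ammonia, o-phthalaldehyde and DTT after EDTA stop. Reaction: 5 nM PAD4, 2 mM CaCl2, 3 mM BAEE, 2 h, 25 °C, after 30 min enzyme–compound preincubation. Normalised to BB-Cl-Amidine (50 µM) and DMSO controls.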
# T1 sequence (Q9UM07 2-663): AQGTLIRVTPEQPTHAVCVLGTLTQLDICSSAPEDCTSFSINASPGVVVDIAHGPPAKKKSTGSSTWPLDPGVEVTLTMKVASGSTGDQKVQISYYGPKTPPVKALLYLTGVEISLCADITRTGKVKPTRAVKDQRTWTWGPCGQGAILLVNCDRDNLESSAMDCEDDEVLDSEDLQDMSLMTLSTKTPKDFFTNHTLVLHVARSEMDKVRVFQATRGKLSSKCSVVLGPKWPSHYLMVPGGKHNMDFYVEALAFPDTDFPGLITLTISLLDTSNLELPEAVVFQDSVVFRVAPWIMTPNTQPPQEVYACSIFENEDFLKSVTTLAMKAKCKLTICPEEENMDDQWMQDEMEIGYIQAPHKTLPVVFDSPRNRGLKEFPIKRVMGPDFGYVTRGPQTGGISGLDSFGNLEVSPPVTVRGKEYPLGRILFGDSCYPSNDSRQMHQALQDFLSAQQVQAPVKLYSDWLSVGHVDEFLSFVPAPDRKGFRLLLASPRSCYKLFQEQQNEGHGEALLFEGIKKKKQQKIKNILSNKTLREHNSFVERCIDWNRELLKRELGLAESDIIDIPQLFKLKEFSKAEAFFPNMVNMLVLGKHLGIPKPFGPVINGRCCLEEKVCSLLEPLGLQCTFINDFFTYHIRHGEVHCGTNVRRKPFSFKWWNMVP
row,Structure (SMILES),IC50 [nM]
1,"COc1cc(C(=O)N[C@H]2CNCCC2(F)F)cc2nc(-c3cc4ccc5cc4n3CCCCCCC(C)(C)C(=O)N[C@@H]5C)n(C)c12 [Example 191, ~{N}-[(3~{S})-4,4-difluoro-3-piperidyl]-7-methoxy-1-methyl-2-[(11~{R})-8,8,11-trimethyl-9-oxo-1,10-diazatricyclo[10.5.2.0^{15,18}]nonadeca-12(19),13,15(18),16-tetraen-17-yl]benzimidazole-5-carboxamide]",140
2,"COc1cc(C(=O)N2[C@H]3CC[C@@H]2[C@H](N)C3)cc2nc(-c3cc4ccc5cc4n3CCCCCCC(C)(C)C(=O)Nc3ncccc3-5)n(C)c12 [Example 99, 18-[5-[(1~{R},2~{R},4~{S})-2-amino-7-azabicyclo[2.2.1]heptane-7-carbonyl]-7-methoxy-1-methyl-benzimidazol-2-yl]-10,10-dimethyl-6,8,17-triazatetracyclo[15.5.2.0^{2,7}.0^{20,24}] tetracosa-1(23),2(7),3,5,18,20(24),21-heptaen-9-one]",111
3,"COc1cc(C(=O)N2CC[C@@H](OC(F)F)[C@@H](N)C2)cc2nc(-c3cc4ccc5nc4n3CCCCCCC(C)(C)C(=O)N[C@@H]5C)n(C)c12 [Example 297, (11~{R})-17-[5-[(3~{S},4~{R})-3-amino-4-(difluoromethoxy)piperidine-1-carbonyl]-7-methoxy-1-methyl-benzimidazol-2-yl]-8,8,11-trimethyl-1,10,19-triazatricyclo[10.5.2.0^{15,18}]nonadeca-12(19),13,15(18),16-tetraen-9-one]",129
4,"C[C@H]1NC(=O)[C@@H]2C[C@H]2CCCC(F)(F)Cn2c(-c3nc4cc(C(=O)N5C[C@H](N)[C@@H]6CC[C@H]5C6)c(F)cc4n3C3CC3)cc3ccc1nc32 [Example 455, (2~{R},5~{R},7~{R})-14-[5-[(1~{S},4~{R},5~{R})-4-amino-2-azabicyclo[3.2.1]octane-2-carbonyl]-1-cyclopropyl-6-fluoro-benzimidazol-2-yl]-11,11-difluoro-2-methyl-3,13,19-triazatetracyclo[11.5.2.0^{5,7}.0^{16,20}] icosa-1(19),14,16(20),17-tetraen-4-one]",36
5,"COc1cc(C(=O)N2CCC[C@@H](N)C2)cc2nc(-c3cc4ccc5nc4n3CCCCCC[C@H](C)C(=O)N[C@@H]5C)n(C)c12 [Example 111, (8~{S},11~{R})-17-[5-[(3~{R})-3-aminopiperidine-1-carbonyl]-7-methoxy-1-methyl-benzimidazol-2-yl]-8,11-dimethyl-1,10,19-triazatricyclo[10.5.2.0^{15,18}]nonadeca-12(19),13,15(18),16-tetraen-9-one]",49
6,"COc1cc(C(=O)N2CCC[C@@H](N)C2)cc2nc(-c3cc4ccc5cc4n3CCC/C=C/CC(C)(C)C(=O)N[C@@H]5C)n(C)c12 [Example 273, (5˜{E},11˜{R})-17-[5-[(3˜{R})-3-aminopiperidine-1-carbonyl]-7-methoxy-1-methyl-benzimidazol-2-yl]-8,8,11-trimethyl-1,10-diazatricyclo[10.5.2.0^{15,18}]nonadeca-5,12(19),13,15(18),16-pentaen-9-one]",68
7,"COc1cc(C(=O)NC2CNCC[C@@H]2F)cc2nc(-c3cc4ccc5nc4n3C[C@H]3C[C@H]3CCC[C@@](C)(C(F)(F)F)C(=O)N[C@@H]5C)n(C)c12 (stereo partly shown) [Example 373, 2-[(3~{S},5~{R},9~{R},12~{R})-9,12-dimethyl-10-oxo-9-(trifluoromethyl)-1,11,20-triazatetracyclo[11.5.2.0^{3,5}.0^{16,19}]icosa-13(20),14,16(19),17-tetraen-18-yl]-~{N}-[(3~{S},4~{S})-4-fluoro-3-piperidyl]-7-methoxy-1-methyl-benzimidazole-5-carboxamide]",254

# The next lines start with the values.
row,IC50 [nM],Structure (SMILES)
1,24,"COc1cc(C(=O)N2C[C@H](N)[C@@H]3CC[C@H]2C3)cc2nc(-c3cc4ccc5nc4n3CCCCCC[C@@](F)(c3ccccn3)C(=O)N[C@@H]5C)n(C)c12 [Example 884, (8~{R},11~{R})-17-[5-[(1~{S),4~{R},5~{R})-4-amino-2-azabicyclo[3.2.1]octane-2-carbonyl]-7-methoxy-1-methyl-benzimidazol-2-yl]-8-fluoro-11-methyl-8-(2-pyridyl)-1,10,19-triazatricyclo[10.5.2.0^ {15,18}]nonadeca-12(19), 13,15(18),16-tetraen-9-one]"
2,49,"[2H]C([2H])([2H])O[C@@H]1CCN(C(=O)c2cc(F)c3c(c2)nc(-c2cc4ccc5nc4n2CC(F)(F)CCC[C@@H]2C[C@H]2C(=O)N[C@@H]5C)n3C2CC2)C[C@@H]1N [Example 641, (2~{R},5~{R},7~{R})-14-[5-[(3~{S},4~{R})-3-amino-4-(trideuteriomethoxy)piperidine-1-carbonyl]-1-cyclopropyl-7-fluoro-benzimidazol-2-yl]-11,11-difluoro-2-methyl-3,13,19-triazatetracyclo[11.5.2.0^ {5,7}.0^{16,20}]icosa-1(19),14,16(20),17-tetraen-4-one]"
3,193,"COc1cc(C(=O)N2CC[C@@H](OC)[C@@H](N)C2)cc2nc(-c3cc4ccc5nc4n3CC(F)(F)CCCOC(C)(C)C(=O)N[C@@H]5C)n(C)c12 [Example 588, (11~{R})-17-[5-[(3~{S},4~ {R})-3-amino-4-methoxy-piperidine-1-carbonyl]-7-methoxy-1-methyl-benzimidazol-2-yl]-3,3-difluoro-8,8,11-trimethyl-7-oxa-1,10,19-triazatricyclo[10.5.2.0^ {15,18}]nonadeca-12(19),13,15(18), 16-tetraen-9-one]"
4,38,"COc1cc(C(=O)N2C[C@H](N)[C@@H]3CC[C@H]2C3)cc2nc(-c3cc4ccc5nc4n3CCCc3ccc4cccc(c4c3)C(=O)N[C@@H]5C)n(C)c12 [Example 950, (4~{R})-10-[5-[(1~{S},4~{R},5~ {R})-4-amino-2-azabicyclo [3.2.1]octane-2-carbonyl]-7-methoxy-1-methyl-benzimidazol-2-yl]-4-methyl-3,6,11-triazapentacyclo [13.6.2.2^{5,8}.0^{7,11}.0^ {18,22}]pentacosa-1(22),5,7,9, 15(23),16,18,20,24-nonaen-2-one]"
5,27,"C[C@H]1NC(=O)c2ccc(Cl)nc2CCCCCn2c(-c3nc4cc(C(=O)N5C[C@H](N)[C@@H]6CC[C@H]5C6)cc(F)c4n3[C@H]3C[C@H]3F)cc3ccc1nc32 [Example 846, (2~{R})-17-[5-[(1~{S),4~{R}, 5~{R})-4-amino-2-azabicyclo [3.2.1]octane-2-carbonyl]-7-fluoro-1-[(1~{S},2~{R})-2-fluorocyclopropyl]benzimidazol-2-yl]-8-chloro-2-methyl-3,9,16,22-tetrazatetracyclo[14.5.2.0^ {5,10).0^{19,23}]tricosa-1(22),5(10),6,8,17,19(23),20-heptaen-4-one]"
6,129,"C[C@H]1NC(=O)[C@@]2(C)C[C@@H]2CCCC(F)(F)Cn2c(-c3nc4cc(C(=O)N[C@H]5CNCC[C@@H]5F)c(F)cc4n3C)cc3ccc1nc32 [Example 549, 2-[(2~{R},5~{S},7~ {S})-11,11-difluoro-2,5-dimethyl-4-oxo-3,13,19-triazatetracyclo [11.5.2.0^{5,7).0^ {16,20}]icosa-1(19), 14,16(20),17-tetraen-14-yl]-6-fluoro-~{N}-[(3~ {S},4~{S})-4-fluoro-3-piperidyl]-1-methyl-benzimidazole-5-carboxamide]"

# Source: patent publication US11976083B2, “Inhibitors of peptidylarginine deiminases” (Gilead Sciences, Inc., priority 2020, dated 2024)
